# PubChem BioAssay AID1919010 (Molecular Pharmacology Branch, DTP, NCI, 2023)
# Values joined by “and” are separate entries in the source; they are usually repeats but may differ in a detail not shown here. Equal entries are not always repeated.
# Tested on: Hs578T complex spheroid growth, percent test/control
# Assay: Anticancer human tumor Hs578T cell line growth inhibition [AhR];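 further: luminescent viability signal as a proxy for spheroid growth; spheroids exposed to agents for one week after three days of growth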
# Settings: for viability, T/C: stronger effect = lower value
# Excerpt: Multicellular complex tumor spheroid response to aryl hydrocarbon receptor antagonists in combination with a variety of drugs and investigational agents in selected tumor cell lines
# The current study was undertaken to assess response to aryl hydrocarbon receptor antagonists in combination with standard-of-care drugs and investigational agents in solid tumor complex spheroid models. Complex spheroids include a stromal component modeled by human endothelial cells (HUVEC) and fibroblasts modeled by human mesenchymal stem cells (MSCs). The concentration ranges selected for each drug and investigational agent were based upon clinically achievable concentrations if the clinical Cmax of the agent was known.
# Compounds. The drugs and investigational agents: BAY 2416964 (NSC825713), GNF351 (NSC835774), CH-223191 (NSC835775), CPI-455 (NSC825282), aza-TdCyd (NSC777586), decitabine (NSC127716), belinostat (NSC758774), entinostat (NSC756642), pevonedistat (NSC761192), tazemetostat (NSC777109), talazoparib (NSC765396), olaparib (NSC753686), selinexor (NSC780203), nedisertib (M3814, NSC802822), bortezomib (NSC756655), venetoclax (NSC766270), doxorubicin (NSC123127), elimusertib (BAY189344, NSC800525), ceralasertib (AZD6738, NSC777638), TAK-243 (NSC785004), alisertib (NSC759677), etoposide (NSC141540), topotecan (NSC609699), eribulin (NSC707389), gemcitabine (NSC613327), carboplatin (NSC241240), cisplatin (NSC119875), and SN-38 (NSC673596) were obtained from the National Cancer Institute (NCI) Developmental Therapeutics Program Chemical Repository (32). The FDA-approved anticancer drug set is available from the Developmental Therapeutics Program at https://dtp.cancer.gov/organization/dscb/obtaining/available plates.htm. […] The stock solutions were prepared in dimethyl sulfoxide (DMSO, Sigma-Aldrich, St. Louis, MO, cat. D2650), except for the platinum compounds which were prepared in saline (Quality Biological, Gaithersburg, MD, cat. 114-055-101), at 800-fold the tested concentration and stored at -70 degrees C prior to their use. All drugs and investigational agents were tested over a range starting from a high concentration at or near the clinical Cmax and decreasing in half-log increments. If the clinical Cmax for an agent had not been determined, the highest concentration tested was 10 microM (Table 1).
# Cell Culture. All cells were maintained in an incubator at 37 degrees C and 5% CO2 with 95% humidity. The PDC lines were cultured according to standard operating procedures established by the NCI PDMR (https://pdmr.cancer.gov). Briefly, all PDCs were thawed and cultured in Matrigel-coated flasks prepared with a working solution of 1X Ham's F-12 nutrient mix, without supplementation (Invitrogen, Waltham, MA, cat. 11765054), 100 U/mL penicillin-streptomycin (Invitrogen, cat. 15140122), and 2.5% Matrigel (Corning Inc., Corning, NY, cat. 354248) for the first three passages. All PDCs were cultured in complete DMEM/F-12 media containing advanced DMEM/F-12 (Invitrogen, cat. 12634028), 4.9% defined fetal bovine serum, heat inactivated (HyClone Laboratories Inc., Logan, UT, cat. SH30070.03HI), 389 ng/mL hydrocortisone (Sigma-Aldrich, cat. H4001), 9.7 ng/mL human EGF recombinant protein (Invitrogen, cat. PHG0313), 23.4 microg/mL adenine (Sigma-Aldrich, cat. A2786), 97.3 U/mL penicillin-streptomycin (Invitrogen, cat. 15140122), 1.9 mM L-glutamine (Invitrogen, cat. 25030081), and 9.7 microM Y-27632 dihydrochloride (Tocris Bioscience, Bristol, United Kingdom, cat. 1254). The PDCs were cultured in complete DMEM/F12 media without 10 microM Y-27632 dihydrochloride for at least two passages prior to the screen. The established cell lines NCI-H1341 and […] were cultured in DMEM/F-12, HEPES (Invitrogen, cat. 11330032), 5% defined fetal bovine serum (HyClone Laboratories Inc., cat. SH30070.03), ITS premix universal culture supplement [insulin (5 microg/mL), transferrin (5 microg/mL), and selenious acid (5 ng/mL)] […]
# [1] = curve of first compound, second compound 0.1 µM
# [2] = curve of first compound, second compound 0.316 µM
# [3] = curve of first compound, second compound 1 µM
# [4] = curve of first compound, second compound 3.16 µM
# [5] = curve of first compound, second compound 10 µM
# [6] = second compound 0.1 µM, first compound 0.0316 µM
# [7] = second compound 0.1 µM, first compound 0.1 µM
# [8] = second compound 0.1 µM, first compound 0.316 µM
# [9] = second compound 0.1 µM, first compound 1 µM
# [10] = second compound 0.1 µM, first compound 3.16 µM
# [11] = second compound 0.1 µM, first compound 10 µM
# [12] = second compound 0.316 µM, first compound 0.0316 µM
# [13] = second compound 0.316 µM, first compound 0.1 µM
# [14] = second compound 0.316 µM, first compound 0.316 µM
# [15] = second compound 0.316 µM, first compound 1 µM
# [16] = second compound 0.316 µM, first compound 3.16 µM
# [17] = second compound 0.316 µM, first compound 10 µM
# [18] = second compound 1 µM, first compound 0.0316 µM
# [19] = second compound 1 µM, first compound 0.1 µM
# [20] = second compound 1 µM, first compound 0.316 µM
# [21] = second compound 1 µM, first compound 1 µM
# [22] = second compound 1 µM, first compound 3.16 µM
# [23] = second compound 1 µM, first compound 10 µM
# [24] = second compound 3.16 µM, first compound 0.0316 µM
# [25] = second compound 3.16 µM, first compound 0.1 µM
# [26] = second compound 3.16 µM, first compound 0.316 µM
# [27] = second compound 3.16 µM, first compound 1 µM
# [28] = second compound 3.16 µM, first compound 3.16 µM
# [29] = second compound 3.16 µM, first compound 10 µM
# [30] = second compound 10 µM, first compound 0.0316 µM
# [31] = second compound 10 µM, first compound 0.1 µM
# [32] = second compound 10 µM, first compound 0.316 µM
# [33] = second compound 10 µM, first compound 1 µM
# [34] = second compound 10 µM, first compound 3.16 µM
# [35] = second compound 10 µM, first compound 10 µM
IC50 [1],IC50 [2],IC50 [3],IC50 [4],IC50 [5],SMILES,"viability, T/C [6]","viability, T/C [7]","viability, T/C [8]","viability, T/C [9]","viability, T/C [10]","viability, T/C [11]","viability, T/C [12]","viability, T/C [13]","viability, T/C [14]","viability, T/C [15]","viability, T/C [16]","viability, T/C [17]","viability, T/C [18]","viability, T/C [19]","viability, T/C [20]",also measured
–,–,–,–,–,COc1cc(C2c3cc4c(cc3C(OC3OC5COC(C)OC5C(O)C3O)C3COC(=O)C23)OCO4)cc(OC)c1O (configuration not stated),–,–,–,–,–,–,–,–,–,–,–,–,–,–,–,"viability, T/C (compound 0.0316 µM): 85.4% and 94.6% and 92.8%; viability, T/C (compound 0.1 µM): 99.7% and 91.7% and 91.5%; viability, T/C (compound 0.316 µM): 84.1% and 88.8% and 79.9%; viability, T/C (compound 1 µM): 66.8% and 82.6% and 69.9%; viability, T/C (compound 3.16 µM): 69.5% and 79.7% and 71.9%; viability, T/C (compound 10 µM): 58.1% and 56.4% and 57.1%; IC50 (curve of compound): > 10000 nM"
> 10000 nM,> 10000 nM,> 10000 nM,> 10000 nM,< 31.6 nM,O=C(c1cc(Cc2n[nH]c(=O)c3ccccc23)ccc1F)N1CCN(C(=O)C2CC2)CC1 + Cc1cncc(-c2nc(NCCc3c[nH]c4ccccc34)c3ncn(C(C)C)c3n2)c1,122%,120%,119%,114%,103%,94.8%,116%,118%,132%,131%,114%,107%,107%,117%,122%,"viability, T/C [21]: 105%; viability, T/C [22]: 103%; viability, T/C [23]: 97.7%; viability, T/C [24]: 74.7%; viability, T/C [25]: 68.6%; viability, T/C [26]: 77.9%; viability, T/C [27]: 60.3%; viability, T/C [28]: 55.9%; viability, T/C [29]: 69.2%; viability, T/C [30]: 7.27%; viability, T/C [31]: 8.04%; viability, T/C [32]: 6.95%; viability, T/C [33]: 6.36%; viability, T/C [34]: 5.59%; viability, T/C [35]: 7.04%"
561 nM,480 nM,363 nM,315 nM,< 31.6 nM,COc1cccc2c1C(=O)c1c(O)c3c(c(O)c1C2=O)CC(O)(C(=O)CO)CC3OC1CC(N)C(O)C(C)O1 (configuration not stated) + Cc1cncc(-c2nc(NCCc3c[nH]c4ccccc34)c3ncn(C(C)C)c3n2)c1,90.3%,87.7%,73.5%,26.6%,3.41%,3.51%,97.1%,87.5%,68.2%,19.3%,3.19%,3.19%,92.9%,80.5%,56.7%,"viability, T/C [21]: 12.3%; viability, T/C [22]: 2.37%; viability, T/C [23]: 2.76%; viability, T/C [24]: 62.1%; viability, T/C [25]: 52.9%; viability, T/C [26]: 50.1%; viability, T/C [27]: 5.82%; viability, T/C [28]: 1.65%; viability, T/C [29]: 1.75%; viability, T/C [30]: 6.81%; viability, T/C [31]: 6.99%; viability, T/C [32]: 11.9%; viability, T/C [33]: 0.55%; viability, T/C [34]: 0.74%; viability, T/C [35]: 0.83%"
2590 nM,2510 nM,2780 nM,2420 nM,2290 nM,O=C(C=Cc1cccc(S(=O)(=O)Nc2ccccc2)c1)NO + CC(CO)NC(=O)c1cc(-c2ccc(Cl)cc2)nn(-c2cnn(C)c2)c1=O,112%,113%,102%,82.6%,43.2%,2.61%,115%,116%,103%,82.5%,41.8%,2%,109%,117%,106%,"viability, T/C [21]: 89.8%; viability, T/C [22]: 45.1%; viability, T/C [23]: 2.32%; viability, T/C [24]: 106%; viability, T/C [25]: 113%; viability, T/C [26]: 107%; viability, T/C [27]: 80.8%; viability, T/C [28]: 41.1%; viability, T/C [29]: 2.02%; viability, T/C [30]: 93.5%; viability, T/C [31]: 94.8%; viability, T/C [32]: 93.6%; viability, T/C [33]: 70.5%; viability, T/C [34]: 42.1%; viability, T/C [35]: 1.62%"
